Earlier results, collected in patent US20170128486A1, “CONSUMABLE COMPOSITIONS AND USES THEREOF FOR ALLEVIATING UNDESIRABLE PHYSIOLOGICAL EFFECTS SYSTEMS” (ImmunoL0G1C R&D Inc., priority 2015, published 2017).
Values after ≈ are worked out from the molar mass of the structure shown.

| solubility in water | solubility (in water) | Compound |
| --- | --- | --- |
| poorly soluble in water |  | N[C@@H](Cc1c[nH]c2ccccc12)C(=O)O [L-tryptophan] |
|  | 10000 µg/mL (≈ 45.4 mM) | N[C@@H](Cc1c[nH]c2ccc(O)cc12)C(=O)O [5-hydroxytryptophan] |
